From patent US20140088114A1, “FUSED BICYCLIC KINASE INHIBITORS” (OSI Pharmaceuticals ,LLC, priority 2011, published 2014) come the findings set out here.

In one test the test system is MKN45 cells. The experiment in a line: MKN45 cell proliferation assay (CellTiter-Glo). It is filed as cell-based. The note with it: Homo sapiens, MKN-45, 72 h; MKN45 cell line, 3 days incubation, at least duplicate experiments; read-out: Prolif. IC50. The method, then: The effect of inhibitors on the proliferation of MKN45 cells was determined using the following protocol. MKN45 cells were plated in Corning 3917 96-well white tissue culture treated plates in growth medium (RPMI, 10% FCS) at a density of 5000 cells/well in a total volume of 135 μL and incubated at 37° C., 5% CO2, 95% humidity overnight. The following day, one-tenth volume of a 10× concentration of compounds was added to the wells in an 8-point dilution series. The dilution series was composed of an initial 1:5 dilution of a 10 mM stock of compound in DMSO, followed by serial 1:4 dilutions in DMSO, then a 1:20 dilution in growth medium prior to the 1:10 dilution into the cell plate. Final DMSO concentration on the cells was 0.1%, there were control wells treated with both 0.1% DMSO and no DMSO. The typical dilution range is 10 μM to 0.6 nM. Once the compound was added to the cells, plates were incubated for 3 days at 37° C., 5% CO2 at 95% humidity. On the third day, after allowing all cells and reagents to come to room temperature, 25 μL of CellTiter-Glo reagent (Promega #G7573) was added to the wells. Plates were shaken on a platform for 10 minutes prior to reading luminescence for 0.1 seconds. The signal of the control wells was taken as 100% growth and growth inhibition was expressed as percent of control. IC50 values were determined from the percent of control data using a standard four-parameter model.
The IC50 values of exemplary compounds of the present invention determined in a cell proliferation assay using the MKN45 cell line according to the procedures described herein in at least duplicate experiments are abbreviated as follows and are shown in Table 2: A, IC50≦0.03 μM; B, 0.03 μM<IC50≦0.1 μM; C, 0.1 μM<IC50≦1 μM; D, 1 μM<IC50≦3 μM; ND, not determined. The Example # of Table 2 corresponds to the compound example number as illustrated in the Examples section. […]

The target of a further test is T1, RON (Homo sapiens, UniProt Q04912).
T1 construct: expressed in transfected cells; host or cells: HeLa
T1 sequence (Q04912 913-1400 limits assumed): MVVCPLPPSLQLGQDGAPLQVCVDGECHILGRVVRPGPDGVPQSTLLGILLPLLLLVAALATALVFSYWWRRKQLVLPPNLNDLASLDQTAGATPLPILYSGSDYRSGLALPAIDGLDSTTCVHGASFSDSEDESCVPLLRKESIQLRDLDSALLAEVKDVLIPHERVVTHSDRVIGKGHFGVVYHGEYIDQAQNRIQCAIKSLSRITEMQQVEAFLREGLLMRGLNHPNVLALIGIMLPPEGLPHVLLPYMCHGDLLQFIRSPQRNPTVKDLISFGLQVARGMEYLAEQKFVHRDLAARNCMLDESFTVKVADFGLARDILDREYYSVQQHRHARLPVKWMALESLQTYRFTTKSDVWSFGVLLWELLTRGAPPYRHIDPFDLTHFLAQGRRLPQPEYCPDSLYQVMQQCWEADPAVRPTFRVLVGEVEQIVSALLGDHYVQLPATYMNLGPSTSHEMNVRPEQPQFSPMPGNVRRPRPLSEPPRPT
The test can be described thus: sfRON cell mechanistic assay (HeLa), phosphorylated RON. It is filed as cell-based. The method, then:
The cellular activity of the compounds of the present invention against RON may be determined by the following procedure. HeLa cells were plated in Falcon 3072 96-well plates in growth media (DMEM, 10% FBS, 1% L-glutamine) at a density of 10000 cells/well and incubated at 37° C., 5% CO2 overnight. The following day, cells were transfected with 0.2 μg sfRON-pcDNA plasmid DNA with 0.5 μL Lipofectamine2000 per well in the presence of 50 μL OPTI-MEM, incubated at 37° C., 5% CO2 overnight. Costar 3915 96-well assay plates were coated with rabbit Anti-RON antibody at 2.0 μg/mL, sealed, and incubated overnight at 4° C. On the third day, coated plates were washed with PBS and blocked with 3% BSA. For the sfRON transfected cells, one-tenth volume of a 10× concentration of compounds was added to the wells in a 6-point dilution series. The dilution series was composed of an initial 1:5 dilution of a 10 mM DMSO stock solution of compound in DMSO, followed by a 1:10 dilution in growth media, for a final DMSO concentration on cells of 0.5%. Control wells were treated with 0.5% DMSO. The typical range of dilution was 10 μM to 3 nM. Once compound was added to the cells, plates were incubated for four hours at 37° C., 5% CO2. Plates were then washed in PBS, and lysed in triton-based lysis buffer. Lysates were transferred to the blocked capture plates. The phosphorylated RON levels were measured by incubating with a Goat polyclonal antibody against phosphorylated RON ([pYpY1238/1239]) followed by an anti-Goat antibody conjugated to HRP. Signal was measured on a Wallac Victor plate reader with luminance. The DMSO signal of the control wells was defined as 100% and the percent of inhibition of phosphorylated RON was expressed as percent of control. IC50 values were determined from the percent of control data using a standard four-parameter model.
The IC50 values of exemplary compounds of the present invention determined in a sfRON cell mechanistic assay using the HeLa cell line according to the procedures described herein in at least duplicate experiments are abbreviated as follows and are shown in Table 3: A, IC50≦0.03 μM; B, 0.03 μM<IC50≦0.1 μM; C, 0.1 μM<IC50≦1 μM; D, 1 μM<IC50≦3 μM; ND, not determined. The Example # of Table 3 corresponds to the compound example number as illustrated in the Examples section.

Where [1] appears, read: Table 6: comparison X = C1-3haloalkyl vs. X = C1-3alkyl, read-out: sfRON cell mechanistic.
[2] abbreviates: sfRON transfected HeLa cells, four hours incubation, inhibition of phosphorylated RON, at least duplicate experiments, read-out: sfRON mech IC50.

pIC50: −log10 of the molar value. Where two headings read alike, the source gives them in different places.

In the case of `COc1ccc(F)c(Cl)c1[C@@H](CF)c1c[nH]c2ncc(-c3cnn([C@H]4CC[C@H](O)CC4)c3)cc12` [Example 3, trans-4-(4-{3-[(1S)-1-(2-chloro-3-fluoro-6-methoxyphenyl)-2-fluoroethyl]-1H-pyrrolo[2,3-b]pyridin-5-yl}-1H-pyrazol-1-yl)cyclohexanol], the pIC50 is 6.00 to 7.00 in the test with MKN45 cells, 7.00 to 7.52 on RON (setting [1]) and 7.00 to 7.52 on RON (setting [2]).
As for `O[C@H]1CC[C@H](n2cc(-c3cnc4[nH]cc([C@@H](CF)c5c(OC(F)F)ccc(F)c5Cl)c4c3)cn2)CC1` [Example 4, trans-4-[4-(3-{(1R)-1-[2-Chloro-6-(difluoromethoxy)-3-fluorophenyl]-2-fluoroethyl}-1H-pyrrolo[2,3-b]pyridin-5-yl)-1H-pyrazol-1-yl]cyclohexanol], the pIC50 is not below 7.52 with MKN45 cells, 7.00 to 7.52 on RON (setting [1]) and 7.00 to 7.52 at RON (setting [2]).
On to `Cn1cc(-c2cnc3[nH]cc(C(CF)c4c(Cl)ccc(F)c4Cl)c3c2)cn1` (centres unmarked) [Example 1, 3-[1-(2,6-Dichloro-3-fluorophenyl)-2-fluoroethyl]-5-(1-methyl-1H-pyrazol-4-yl)-1H-pyrrolo[2,3-b]pyridine], for which the pIC50 in the test on MKN45 cells, on RON (setting [1]) and at RON (setting [2]) was 6.00 to 7.00 in each case.
In the case of `O[C@H]1CC[C@H](n2cc(-c3cnc4[nH]cc([C@H](CF)c5c(OC(F)F)ccc(F)c5Cl)c4c3)cn2)CC1` [Example 5, trans-4-[4-(3-{(1S)-1-[2-Chloro-6-(difluoromethoxy)-3-fluorophenyl]-2-fluoroethyl}-1H-pyrrolo[2,3-b]pyridin-5-yl)-1H-pyrazol-1-yl]cyclohexanol], the pIC50 on RON (setting [1]) and on RON (setting [2]) was not below 7.52 in each case.
